What was measured:
Parameters in all cases: dose 200 mg/kg, route oral
Rattus norvegicus [1] = assay: Metabolic stability in Sprague-Dawley rat assessed as urinary excretion of trans-m-coumaric acid level at 200 mg/kg, po after 0 to 24 hrs by HPLC; assay type: ADME, organism-based, Urine; details: in vivo
Rattus norvegicus [2] = assay: Metabolic stability in Sprague-Dawley rat assessed as urinary excretion of trans-ferulic acid 4-O-sulfate level at 200 mg/kg, po after 0 to 36 hrs by HPLC; assay type: ADME, organism-based, Urine; details: in vivo
[3] = Metabolic stability in Sprague-Dawley rat assessed as urinary excretion of unchanged drug level at 200 mg/kg, po after 0 to 4 hrs by HPLC; assay type: ADME, organism-based; details: urine, read-out: Activity
Rattus norvegicus [4] = assay: Metabolic stability in Sprague-Dawley rat assessed as urinary excretion of trans-caffeic acid 4-O-sulfate level at 200 mg/kg, po after 0 to 72 hrs by HPLC; assay type: ADME, organism-based, Urine; details: in vivo
Rattus norvegicus [5] = assay: Metabolic stability in Sprague-Dawley rat assessed as urinary excretion of trans-ferulic acid 4-O-sulfate level at 200 mg/kg, po after 0 to 48 hrs by HPLC; assay type: ADME, organism-based, Urine; details: in vivo
Rattus norvegicus [6] = assay: Metabolic stability in Sprague-Dawley rat assessed as urinary excretion of total metabolites at 200 mg/kg, po after 0 to 4 hrs by HPLC; assay type: ADME, organism-based, Urine; details: in vivo
Rattus norvegicus [7] = assay: Metabolic stability in Sprague-Dawley rat assessed as urinary excretion of trans-caffeic acid 4-O-sulfate level at 200 mg/kg, po after 0 to 24 hrs by HPLC; assay type: ADME, organism-based, Urine; details: in vivo
Rattus norvegicus [8] = assay: Metabolic stability in Sprague-Dawley rat assessed as urinary excretion of trans-m-coumaric acid 3-O-sulfate level at 200 mg/kg, po after 0 to 72 hrs by HPLC; assay type: ADME, organism-based, Urine; details: in vivo
Rattus norvegicus [9] = assay: Metabolic stability in Sprague-Dawley rat assessed as urinary excretion of m-hydroxyphenyl-propionic acid level at 200 mg/kg, po after 0 to 36 hrs by HPLC; assay type: ADME, organism-based, Urine; details: in vivo
Rattus norvegicus [10] = assay: Metabolic stability in Sprague-Dawley rat assessed as urinary excretion of total metabolites at 200 mg/kg, po after 0 to 48 hrs by HPLC; assay type: ADME, organism-based, Urine; details: in vivo
[11] = Metabolic stability in Sprague-Dawley rat assessed as urinary excretion of unchanged drug level at 200 mg/kg, po after 0 to 36 hrs by HPLC; assay type: ADME, organism-based; details: urine, read-out: Activity
Rattus norvegicus [12] = assay: Metabolic stability in Sprague-Dawley rat assessed as urinary excretion of trans-ferulic acid 4-O-sulfate level at 200 mg/kg, po after 0 to 4 hrs by HPLC; assay type: ADME, organism-based, Urine; details: in vivo
Rattus norvegicus [13] = assay: Metabolic stability in Sprague-Dawley rat assessed as urinary excretion of total metabolites at 200 mg/kg, po after 0 to 8 hrs by HPLC; assay type: ADME, organism-based, Urine; details: in vivo
Rattus norvegicus [14] = assay: Metabolic stability in Sprague-Dawley rat assessed as urinary excretion of trans-m-coumaric acid level at 200 mg/kg, po after 0 to 8 hrs by HPLC; assay type: ADME, organism-based, Urine; details: in vivo
Rattus norvegicus [15] = assay: Metabolic stability in Sprague-Dawley rat assessed as urinary excretion of trans-m-coumaric acid 3-O-sulfate level at 200 mg/kg, po after 0 to 48 hrs by HPLC; assay type: ADME, organism-based, Urine; details: in vivo
Rattus norvegicus [16] = assay: Metabolic stability in Sprague-Dawley rat assessed as urinary excretion of total metabolites at 200 mg/kg, po after 0 to 12 hrs by HPLC; assay type: ADME, organism-based, Urine; details: in vivo
Rattus norvegicus [17] = assay: Metabolic stability in Sprague-Dawley rat assessed as urinary excretion of total metabolites at 200 mg/kg, po after 0 to 72 hrs by HPLC; assay type: ADME, organism-based, Urine; details: in vivo
[18] = Metabolic stability in Sprague-Dawley rat assessed as urinary excretion of unchanged drug level at 200 mg/kg, po after 0 to 48 hrs by HPLC; assay type: ADME, organism-based; details: urine, read-out: Activity
[19] = Metabolic stability in Sprague-Dawley rat assessed as urinary excretion of unchanged drug level at 200 mg/kg, po after 0 to 12 hrs by HPLC; assay type: ADME, organism-based; details: urine, read-out: Activity
[20] = Metabolic stability in Sprague-Dawley rat assessed as urinary excretion of unchanged drug level at 200 mg/kg, po after 0 to 24 hrs by HPLC; assay type: ADME, organism-based; details: urine, read-out: Activity
Rattus norvegicus [21] = assay: Metabolic stability in Sprague-Dawley rat assessed as urinary excretion of trans-caffeic acid level at 200 mg/kg, po after 0 to 4 hrs by HPLC; assay type: ADME, organism-based, Urine; details: in vivo
Rattus norvegicus [22] = assay: Metabolic stability in Sprague-Dawley rat assessed as urinary excretion of m-hydroxyphenyl-propionic acid level at 200 mg/kg, po after 0 to 72 hrs by HPLC; assay type: ADME, organism-based, Urine; details: in vivo
Rattus norvegicus [23] = assay: Metabolic stability in Sprague-Dawley rat assessed as urinary excretion of trans-caffeic acid level at 200 mg/kg, po after 0 to 8 hrs by HPLC; assay type: ADME, organism-based, Urine; details: in vivo
Rattus norvegicus [24] = assay: Metabolic stability in Sprague-Dawley rat assessed as urinary excretion of trans-caffeic acid level at 200 mg/kg, po after 0 to 48 hrs by HPLC; assay type: ADME, organism-based, Urine; details: in vivo
Rattus norvegicus [25] = assay: Metabolic stability in Sprague-Dawley rat assessed as urinary excretion of trans-caffeic acid level at 200 mg/kg, po after 0 to 12 hrs by HPLC; assay type: ADME, organism-based, Urine; details: in vivo
Rattus norvegicus [26] = assay: Metabolic stability in Sprague-Dawley rat assessed as urinary excretion of trans-m-coumaric acid 3-O-sulfate level at 200 mg/kg, po after 0 to 24 hrs by HPLC; assay type: ADME, organism-based, Urine; details: in vivo

Activity (Rattus norvegicus [1]): 0.333% | Activity (Rattus norvegicus [2]): 0.559% | dose excreted [3]: 0.041% | Activity (Rattus norvegicus [4]): 0.154% | Activity (Rattus norvegicus [5]): 0.581% | Activity (Rattus norvegicus [6]): 0.17% | Activity (Rattus norvegicus [7]): 0.149% | Activity (Rattus norvegicus [8]): 12.137% | Activity (Rattus norvegicus [9]): 17.43% | Activity (Rattus norvegicus [10]): 31.836% | dose excreted [11]: 0.077% | Activity (Rattus norvegicus [12]): 0.081% | Activity (Rattus norvegicus [13]): 1.476% | Activity (Rattus norvegicus [14]): 0.015% | Activity (Rattus norvegicus [15]): 12.137% | Activity (Rattus norvegicus [16]): 6.241% | Activity (Rattus norvegicus [17]): 31.836% | dose excreted [18]: 0.077% | dose excreted [19]: 0.077% | dose excreted [20]: 0.077% | Activity (Rattus norvegicus [21]): 0.01% | Activity (Rattus norvegicus [22]): 18.357% | Activity (Rattus norvegicus [23]): 0.027% | Activity (Rattus norvegicus [24]): 0.117% | Activity (Rattus norvegicus [25]): 0.037% | Activity (Rattus norvegicus [26]): 7.456%
SMILES: O=C(/C=C/c1ccc(O)c(O)c1)O[C@H](Cc1ccc(O)c(O)c1)C(=O)O [ROSMARINIC ACID]

From ChEMBL document CHEMBL1150930, “Metabolism of rosmarinic acid in rats” (J Nat Prod, 1998)
